From patent publication US9988407B2, “Prodrugs of prostate specific membrane antigen (PSMA) inhibitor” (THE JOHNS HOPKINS UNIVERSITY, priority 2014, dated 2018)
“Also recorded” adds a separate entry of the source.

Tests used:
[1] = Metabolic stability in mouse liver microsomes; format: in vitro ADME; conditions: 10 μM, 37° C.
Protocol: (§1) For metabolic stability, plasma (mouse, dog, monkey and human) and liver microsomes (mouse, dog, monkey and human) were used. For stability, prodrugs (10 μM) were spiked in each matrix and incubated in an orbital shaker at 37° C. At predetermined times (0, 30 and 60 min), 100 μL aliquots of the mixture in triplicate were removed and the reaction quenched by addition of three times the volume of ice cold acetonitrile spiked with the internal standard (losartan 5 μM). The samples were vortexed for 30 s and centrifuged 12000 g for 10 min. 50 μL supernatant diluted with 50 μL water was transferred to a 250 μL polypropylene vial sealed with a Teflon cap. Prodrug disappearance was monitored over time using a liquid chromatography and tandem mass spectrometry (LC/MS/MS) method as described below.
(§2) For LC/MS/MS, prodrugs were separated with Thermo Scientific Accela UPLC system coupled to Accela open autosampler on an Agilent C18 (100×2.1 mm id) UPLC column. The autosampler was temperature controlled and operating at 10° C. The mobile phase used for the chromatographic separation was composed of acetonitrile/water containing 0.1% formic acid and was run at a flow rate of 0.5 mL/minute for 4.5 minutes using gradient elution. The column effluent was monitored using TSQ Vantage triple-quadrupole mass spectrometric detector, equipped with an electrospray probe set in the positive ionization mode. Samples were introduced into the ionization source through a heated nebulized probe (350° C.).
(§3) For quantification of compound remaining, disappearance of prodrugs was measured from ratio of peak areas of analyte to IS. Percentage remaining was calculated in the following manner: […]

[2] = In vitro metabolic stability screen in plasma and liver subcellular fractions (results in words); format: in vitro ADME; conditions: 60 min incubation
Protocol: as §1, §2
For quantification of compound remaining, disappearance of prodrugs was measured from ratio of peak areas of analyte to IS. Percentage remaining was calculated in the following manner:
In general, the prodrugs were screened by an in vitro metabolic stability screen, and if positive, followed by an in vivo single time point pharmacokinetic study, and in select cases, an in vivo full time course pharmacokinetic study (FIG. 3). In this Example, the four acidic functional groups in 2-PMPA were systematically capped. The carboxylic acids were first masked with simple alkyl esters (Compounds 1, 2, and 3). In vitro chemical and metabolic stability of the prodrugs then were conducted, following 60 min incubation in plasma stability screens for prodrugs.

[3] = Chemical stability in HBSS buffer (pH 7.4) / simulated gastric fluid; format: physicochemical; conditions: for Percentage remaining: HBSS, 10 μM, 37° C.; for chemical stability: chemical hydrolysis / HBSS buffer
Protocol: The chemical stability of prodrugs was evaluated using simulated gastric fluid (pH 1.2) and Hanks' Balanced Salt Solution (HBSS) buffer (pH 7.4). Briefly, prodrugs were spiked (10 μM) in respective solutions and incubated at 37° C. for 1 h. At predetermined time points (0, 30 and 60 min), aliquots of 100 μL were removed and diluted with 100 μL of water. Prodrug disappearance was monitored using the developed liquid chromatography and tandem mass spectrometry (LC/MS/MS) method described below.
as §2, §3

[4] = Metabolic stability in mouse plasma; format: in vitro ADME; conditions: 10 μM, 37° C.
Protocol: as §1, §2, §3

[5] = Metabolic stability in mouse liver S9; format: in vitro ADME; conditions: Mouse S9, 10 μM, 37° C.
[6] = In vivo pharmacokinetics in mice, peroral, bioanalysis method 1 (total prodrug exposure); conditions: mice, oral dosing
Protocol: Blood was obtained via cardiac puncture and tissue dissected at 0 min, 15 min, 30 min, 1 h, 2 h, and 4 h post dose (n=3 per time point). Single time point studies were conducted at 30 min (N=3) following dosing. Plasma was harvested from blood by centrifugation. Mean concentration-time data was used for pharmacokinetic (PK) analysis. Non-compartmental-analysis module in WinNonlin® (version 5.3) was used to assess pharmacokinetic parameters. Peak plasma concentrations (Cmax) and time to Cmax (Tmax) were the observed values. Area under the curve (AUC) was calculated by log-linear (p.o.) trapezoidal rule to the end of sample collection (AUClast) and extrapolated to infinity (AUC0-∞) by dividing the last quantifiable concentration by the terminal disposition rate constant (ke). Terminal half-life (t1/2) was estimated from first order kinetics: t1/2=0.693/ke.
Briefly, prior to extraction, frozen samples were thawed on ice. For plasma extraction, 50 μL of the calibration standards or samples were transferred into silanized microcentrifuge tubes. Sample preparation involved a single liquid extraction by addition of 300 μL of methanol as extraction solution with internal standard (i.e., 5 μM of 2-PMSA in methanol), followed by vortexing for 30 s and then centrifugation at 12000 g for 10 min. Supernatant was transferred (˜250 μL) and evaporated to dryness at 40° C. under a gentle stream of nitrogen. The residue was reconstituted with 100 μL of derivatizing agent, n-butanol with 3N HCl, and samples were vortexed. The samples were heated at ˜60 OC in a shaking water bath for 30 min. At the end of 30 min, the derivatized samples were allowed to cool at room temperature and dried again for removal of derivatizing reagent, under a gentle stream of nitrogen. The residue was reconstituted in 100 μL of 30% acetonitrile in water v/v. The samples were vortexed and centrifuged again. ˜80 μL supernatant was transferred to a 250 μL polypropylene vial sealed with a Teflon cap and a volume of 10 μL was injected onto the ultra-performance liquid chromatography (UPLC) instrument for quantitative analysis. Chromatographic analysis was performed using an Accela™ ultra high-performance system consisting of an analytical pump, and an autosampler coupled with TSQ Vantage mass spectrometer (Thermo Fisher Scientific Inc., Waltham Mass.). […] The mobile phase used was composed of 0.1% formic acid in acetonitrile and 0.1% formic acid in H2O with gradient elution, starting with 20% (organic) linearly increasing to 65% up to 2.5 min, maintaining at 65% (2.5-3.5 min) and reequilibrating to 30% by 5 min. The total run time for each analyte was 5.0 min.

[7] = Metabolic stability in human liver microsomes; format: in vitro ADME; conditions: 10 μM, 37° C.
Protocol: as §1, §2, §3

[8] = Metabolic stability in human plasma; format: in vitro ADME; conditions: 10 μM, 37° C.
Protocol: as §1, §2, §3

Percentage remaining ([1]; 0 min) [%]	Percentage remaining ([1]; 30 min) [%]	Percentage remaining ([1]; 60 min) [%]	chemical stability [3]	Percentage remaining ([4]; 0 min) [%]	Percentage remaining ([4]; 30 min) [%]	Percentage remaining ([4]; 60 min) [%]	Percentage remaining ([5]; 0 min) [%]	Percentage remaining ([5]; 30 min) [%]	Percentage remaining ([5]; 60 min) [%]	Compound	in vitro metabolic stability [2]	permeability in vivo [6]	other results
100	2	0.1	stable to chemical hydrolysis	100	2	0.4	100	1	0.1	COC(=O)CCC(CP(=O)(OCOC(=O)OC(C)C)OCOC(=O)OC(C)C)C(=O)OC (stereo not drawn) [Compound 6, Dimethyl 2-((bis{[(isopropoxycarbonyl)oxy]methoxy}phosphoryl)methyl)-pentanedioate]	unstable in mouse plasma and mouse liver microsomes	good compound penetrability; also recorded: good permeability	Percentage remaining ([3]; 0 min): 100%; Percentage remaining ([3]; 30 min): 101%; Percentage remaining ([3]; 60 min): 93%; chemical stability ([3]; listed as JHU 2110): stable in HBSS buffer; permeability in vivo ([6]; listed as JHU 2110): most permeable
–	–	–	stable to chemical hydrolysis	–	–	–	–	–	–	COC(=O)C(CCC(=O)O)CP(=O)(OCOC(=O)OC(C)C)OCOC(=O)OC(C)C (stereo not drawn) [Compound 7, 4-((Bis{[(isopropoxycarbonyl)oxy]methoxy}phosphoryl)methyl)-5-methoxy-5-oxopentanoic acid]	unstable in mouse plasma and mouse liver microsomes	good compound penetrability; also recorded: good permeability	–
100	2	0	–	0	0	0	100	1	0	CCOC(=O)CCC(CP(=O)(OCOC(=O)C(C)(C)C)OCOC(=O)C(C)(C)C)C(=O)OCC (stereo not drawn) [Compound 18, Diethyl 2-({bis[(pivaloyloxy)methoxy]phosphoryl}methyl)pentanedioate]	too stable	–	Percentage remaining ([7]; 0 min): 100%; Percentage remaining ([7]; 30 min): 1%; Percentage remaining ([7]; 60 min): 0%; Percentage remaining ([8]; 0 min): 100%; Percentage remaining ([8]; 30 min): 50%; Percentage remaining ([8]; 60 min): 18%
–	–	–	sufficient chemical stability	–	–	–	–	–	–	CC(C)(C)C(=O)OCOC(=O)C(CCC(=O)O)CP(=O)(OCOC(=O)C(C)(C)C)OCOC(=O)C(C)(C)C (stereo not drawn) [Compound 23]	instability in plasma and liver subcellular fractions	highest permeability	–
